The values that follow come from patent US9550792B2, “Polycyclic substituted pyrazole kinase activity inhibitors and use thereof” (priority 2013, dated 2017).

The target in one data set is T1, CDK2/A (Homo sapiens, UniProt P24941).
T1 construct: purchased
Kind of data set: Inhibitory activity to CDK2 (FRET). The conditions noted are these: for inhibition at 1 µM: read-out: CDK2 inhibition % (1 × 10^−6 mol/L). Type of data set: biochemical. How it is done:
CDK2/A was purchased in the form of a kit or obtained through purification.
Procedures: CDK2/A is diluted to a suitable concentration with kinase diluent. The kinase reaction mixture contains CDK2/A, peptide substrate, HEPES (pH7.5), BRIJ-35, MgCl2 and EDTA. CDK2 phospho-peptide substrate is used as the control of 100% phosphorylation and ATP-free as the control of 0% phosphorylation. After 1 h, the diluted Development Reagent A is added into the reaction system. Then the reaction is allowed to proceed for 1 h and then quenched with Stop Reagent. […] The inhibitions of the tested compounds are calculated according to the formula.

The next data set addresses T2, Aurora A (Homo sapiens, UniProt O14965).
T2 construct: purchased
T2 sequence (O14965 1-403): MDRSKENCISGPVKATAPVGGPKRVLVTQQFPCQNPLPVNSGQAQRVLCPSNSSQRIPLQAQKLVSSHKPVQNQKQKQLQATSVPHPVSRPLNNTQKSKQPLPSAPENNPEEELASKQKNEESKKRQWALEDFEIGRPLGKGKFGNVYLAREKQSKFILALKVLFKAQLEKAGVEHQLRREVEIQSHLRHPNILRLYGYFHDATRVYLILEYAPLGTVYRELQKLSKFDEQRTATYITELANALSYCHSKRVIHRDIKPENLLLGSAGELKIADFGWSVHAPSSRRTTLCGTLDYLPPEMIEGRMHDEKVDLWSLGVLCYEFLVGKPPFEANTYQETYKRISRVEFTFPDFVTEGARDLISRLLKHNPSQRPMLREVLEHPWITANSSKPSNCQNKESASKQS
Put plainly: Inhibitory activity to Aurora A (FRET). Type of data set: biochemical. The conditions noted are these: for inhibition at 1 µM: read-out: Aurora A inhibition % (1 × 10^−6 mol/L). How it is done: The inhibitory activities of the synthesized compounds for Aurora A is determined by fluorescence resonance energy transfer (FRET) and were compared with the positive control drug so as to screen the compounds with better activities. Aurora A was purchased in the form of a kit or obtained through purification. Procedures: Aurora A is diluted to a suitable concentration with kinase diluent. The kinase reaction mixture contains Aurora A, peptide substrate, HEPES (pH7.5), BRIJ-35, MgCl2 and EDTA. Aurora A phospho-peptide substrate is used as the control of 100% phosphorylation and ATP-free as the control of 0% phosphorylation. After 1 h, the diluted Development Reagent A is added into the reaction system. Then the reaction is allowed to proceed for 1 h and then quenched with Stop Reagent. The excitation wavelength is 400 nm and the fluorescence intensity is detected at 445 nm (coumarin) and 520 nm (fluorescein). The inhibitions of the tested compounds are calculated according to the formula.

The subject of data set [1] is Candida albicans - ATCC 36082. Put plainly: Antifungal activity, modified broth microdilution. The class given is cell-based. As to conditions: 48 hours at 35, approximately 50% reduction of growth. How it is done: (§1) The test microorganisms are maintained on Sabourahd Dextrose Agar slant at 4[…]. Singlet suspension of each microorganism is prepared by growing the yeast overnight at 27[…] on a rotating drum in yeast-nitrogen base broth (YNB) with amino acids (Difco, Detroit, Mich.), (pH 7.0) and 0.05 morpholine propanesulphonic acid (MOPS). […] The activity of the test compound is determined using a modified broth microdilution technique. […] Well 12 serves as a growth control. […] Inoculated plate is incubated for 48 hours at 35 °C. […] Minimal Cytolytic Concentration (MCC) is determined by subculturing all wells from the 96-well plate onto a Sabourahd Dextrose Agar (SDA) plate, incubating for 1-2 days at 35 °C, and then checking viability.

The subject of a further data set is Candida parapsilosis. Kind of data set: Antifungal activity, modified broth microdilution. As to conditions: 48 hours at 35, approximately 50% reduction of growth. The class given is cell-based. How it is done:
as §1

The next data set relates to Candida tropicalis. Put plainly: Antifungal activity, modified broth microdilution. Type of data set: cell-based. As to conditions: 48 hours at 35, approximately 50% reduction of growth. How it is done:
as §1

The subject of the next data set is Cryptococcus neoformans. Kind of data set: Antifungal activity, modified broth microdilution. Type of data set: cell-based. As to conditions: 48 hours at 35, approximately 50% reduction of growth. How it is done: as §1
The test system of another data set is Phytophthora infestans. Type of data set: in vivo. Details: concentration or dose not given beside the values.

Converted amounts (≈) assume the structure as drawn. Read-outs that look alike come from different tables or passages of the source.

As to `O=C(Nc1ccc(CN2CCOCC2)cc1)c1n[nH]cc1Nc1nccc2sccc12` [Compound I-26, 4-(4-thieno[3,2-c]pyridylamino)-N-(4-((4-morpholinyl)methyl)phenyl)-1H-3-pyrazolecarboxamide], the melting point lay within 269 to 271 °C. Moreover, the inhibition at 1 µM at CDK2/A is 73.1%. Besides, the inhibition at 1 µM on Aurora A was 61.1%.

In turn, `CN1CCN(Cc2ccc(NC(=O)c3n[nH]cc3Nc3nccc4sccc34)cc2)CC1` [Compound I-25, 4-(4-thieno[3,2-c]pyridylamino)-N-(4-((4-methyl-1-piperazinyl)methyl)phenyl)-1H-3-pyrazolecarboxamide] yielded a melting point of 268 to 270 °C. Moreover, the inhibition at 1 µM on CDK2/A was 59.5%. Also, at Aurora A, the inhibition at 1 µM is 59.7%. Further, the MIC in data set [1] (Candida albicans, ATCC36082) is 3.38 µg/mL (≈ 7.55 µM). For the same molecule, the MIC in the data set on Candida parapsilosis (Lodderomyces parapsilosis) worked out at 0.96 µg/mL (≈ 2.14 µM). Also, inhibition of growth in the data set with Candida tropicalis (Candida tropicalis) (MIC) required 1.08 µg/mL (≈ 2.41 µM). It took 2.83 µg/mL (≈ 6.32 µM) to inhibit growth in the data set on Cryptococcus neoformans (Cryptococcus neoformans) (MIC). Also, the “Severity of tomato leaf blight” value in the data set with Phytophthora infestans (0.0001 (unit not given)) was “++ (15-40% blight)”. Further, in the data set on Phytophthora infestans (0.001 (unit not given)), the “Severity of tomato leaf blight” value is listed as “++ (15-40% blight)”. Further, the “Severity of tomato leaf blight” value in the data set on Phytophthora infestans (0.01 (unit not given)) was “+ (0-15% blight)”. The “Severity of tomato leaf blight” value in the data set with Phytophthora infestans (0.1 (unit not given)) is “−”.

For `O=C(Nc1ccc(CN2CCOCC2)cc1)c1n[nH]cc1Nc1nccc2ccsc12` [Compound I-30, 4-(7-thieno[2,3-c]pyridylamino)-N-(4-((4-morpholinyl)methyl)phenyl)-1H-3-pyrazolecarboxamide], the melting point was in the range of 271 to 273 °C. The inhibition at 1 µM at CDK2/A came out at 73.1%. The inhibition at 1 µM at Aurora A is 55.1%.

`O=C(Nc1ccc(CN2CCOCC2)cc1)c1n[nH]cc1Nc1ccnc2occc12` [Compound I-42, 4-(4-furo[2,3-b]pyridylamino)-N-(4-((4-morpholinyl)methyl)phenyl)-1H-3-pyrazolecarboxamide] registered a melting point of 269 to 271 °C. Moreover, the inhibition at 1 µM on CDK2/A is 54.2%. For the same molecule, at Aurora A, the inhibition at 1 µM stood at 51.8%.

As for `O=C(Nc1ccc(CN2CCOCC2)cc1)c1n[nH]cc1Nc1ccnc2ccoc12` [Compound I-40, 4-(7-furo[3,2-b]pyridylamino)-N-(4-((4-morpholinyl)methyl)phenyl)-1H-3-pyrazolecarboxamide], the melting point is 275 to 278 °C. On CDK2/A, the inhibition at 1 µM stood at 20.2%. Moreover, on Aurora A, the inhibition at 1 µM was determined as 40.7%.

`O=C(Nc1ccc(CN2CCOCC2)cc1)c1n[nH]cc1Nc1ncnc2ccsc12` [Compound I-10, 4-(4-thieno[3,2-d]pyrimidinylamino)-N-(4-((4-morpholinyl)methyl)phenyl)-1H-3-pyrazolecarboxamide] showed a melting point of 275 to 277 °C. In addition, the inhibition at 1 µM on CDK2/A was determined as 56.2%. Besides, the inhibition at 1 µM at Aurora A is 54.9%.

For `CN1CCN(Cc2ccc(NC(=O)c3n[nH]cc3Nc3ncnc4cc[nH]c34)cc2)CC1` [Compound I-17, 4-(4-(5H-pyrrolo[3,2-d]pyrimidinyl)amino)-N-(4-((4-methyl-1-piperazinyl)methyl)phenyl)-1H-3-pyrazolecarboxamide], the “CDK2 inhibition % (1 × 10^−6 mol/L)” value on CDK2/A worked out at 65.96%. Besides, the “Aurora A inhibition % (1 × 10^−6 mol/L)” value at Aurora A came to 62.17%. Besides, the “Candida albicans - ATCC 36082 MIC” value in data set [1] is 9.49 µg/mL. Moreover, the “Candida parapsilosis MIC” value in the data set with Candida parapsilosis amounted to 2.76 µg/mL. For the same molecule, the “Candida tropicalis MIC” value in the data set with Candida tropicalis is 4.70 µg/mL. Further, the “Cryptococcus neoformans MIC” value with Cryptococcus neoformans came to 7.99 µg/mL. For the same molecule, the “Severity of tomato leaf blight” value is listed as “+++ (40-60% blight)” in the data set on Phytophthora infestans (0.0001 (unit not given)), “++ (15-40% blight)” with Phytophthora infestans (0.001 (unit not given)), “+ (0-15% blight)” with Phytophthora infestans (0.01 (unit not given)) and “−” in the data set with Phytophthora infestans (0.1 (unit not given)).

Take `Cc1c[nH]c2ncnc(Nc3c[nH]nc3C(=O)Nc3ccc(CN4CCN(C)CC4)cc3)c12` [Compound I-15, 4-(4-(5-methyl-7H-pyrrolo[2,3-d]pyrimidinyl)amino)-N-(4-((4-methyl-1-piperazinyl)methyl)phenyl)-1H-3-pyrazolecarboxamide]: on CDK2/A, the “CDK2 inhibition % (1 × 10^−6 mol/L)” value was 73.16%. Further, the “Aurora A inhibition % (1 × 10^−6 mol/L)” value at Aurora A is listed as 57.43%. In data set [1], the “Candida albicans - ATCC 36082 MIC” value worked out at 6.77 µg/mL. The “Candida parapsilosis MIC” value in the data set with Candida parapsilosis was found to be 5.78 µg/mL. Also, in the data set with Candida tropicalis, the “Candida tropicalis MIC” value amounted to 5.00 µg/mL. In addition, the “Cryptococcus neoformans MIC” value with Cryptococcus neoformans came to 9.40 µg/mL. The “Severity of tomato leaf blight” value in the data set with Phytophthora infestans (0.0001 (unit not given)) is on record as “++ (15-40% blight)”; in the data set on Phytophthora infestans (0.001 (unit not given)), “++ (15-40% blight)”; with Phytophthora infestans (0.01 (unit not given)) it was “+ (0-15% blight)”; in the data set with Phytophthora infestans (0.1 (unit not given)), “−”.

The molecule `O=C(Nc1ccc(CN2CCOCC2)cc1)c1n[nH]cc1Nc1nccc2occc12` [Compound I-34, 4-(4-furo[3,2-c]pyridylamino)-N-(4-((4-morpholinyl)methyl)phenyl)-1H-3-pyrazolecarboxamide] displayed a melting point of 268 to 271 °C. Further, at CDK2/A, the inhibition at 1 µM came out at 65.8%. Also, the inhibition at 1 µM at Aurora A came out at 50.5%.

With `Cc1cc2ncnc(Nc3c[nH]nc3C(=O)Nc3ccc(CN4CCN(C)CC4)cc3)c2[nH]1` [Compound I-19, 4-(4-(6-methyl-5H-pyrrolo[3,2-d]pyrimidinyl)amino)-N-(4-((4-methyl-1-piperazinyl)methyl)phenyl)-1H-3-pyrazolecarboxamide], at CDK2/A, the “CDK2 inhibition % (1 × 10^−6 mol/L)” value was found to be 65.01%. Further, at Aurora A, the “Aurora A inhibition % (1 × 10^−6 mol/L)” value stood at 70.28%. Moreover, in data set [1], the “Candida albicans - ATCC 36082 MIC” value came to 11.80 µg/mL. For the same molecule, the “Candida parapsilosis MIC” value in the data set on Candida parapsilosis was 6.45 µg/mL. Besides, in the data set on Candida tropicalis, the “Candida tropicalis MIC” value came to 8.58 µg/mL. The “Cryptococcus neoformans MIC” value in the data set on Cryptococcus neoformans is 12.86 µg/mL. Further, the “Severity of tomato leaf blight” value is “++++ (>60% blight)” in the data set with Phytophthora infestans (0.0001 (unit not given)), “++ (15-40% blight)” with Phytophthora infestans (0.001 (unit not given)), “+ (0-15% blight)” in the data set with Phytophthora infestans (0.01 (unit not given)) and “−” in the data set on Phytophthora infestans (0.1 (unit not given)).

For `O=C(Nc1ccc(CN2CCOCC2)cc1)c1n[nH]cc1Nc1nccc2ccoc12` [Compound I-38, 4-(7-furo[2,3-c]pyridylamino)-N-(4-((4-morpholinyl)methyl)phenyl)-1H-3-pyrazolecarboxamide], the melting point lay in the range of 268 to 272 °C. The inhibition at 1 µM on CDK2/A was 64.8%. In addition, on Aurora A, the inhibition at 1 µM stood at 51%.

For `O=C(Nc1ccc(CN2CCOCC2)cc1)c1n[nH]cc1Nc1ncnc2ccoc12` [Compound I-24, 4-(4-furo[3,2-d]pyrimidinylamino)-N-(4-((4-morpholinyl)methyl)phenyl)-1H-3-pyrazolecarboxamide], the melting point fell in the range of 271 to 273 °C. Also, the inhibition at 1 µM at CDK2/A is 67.1%. In addition, the inhibition at 1 µM on Aurora A is 49.2%.

Turning to `CN1CCN(Cc2ccc(NC(=O)c3n[nH]cc3Nc3nccc4ccoc34)cc2)CC1` [Compound I-37, 4-(7-furo[2,3-c]pyridylamino)-N-(4-((4-methyl-1-piperazinyl)methyl)phenyl)-1H-3-pyrazolecarboxamide], the melting point lay within 258 to 261 °C. The inhibition at 1 µM at CDK2/A amounted to 72.2%. Further, the inhibition at 1 µM on Aurora A was 59.6%.

As for `CN1CCN(Cc2ccc(NC(=O)c3n[nH]cc3Nc3ccnc4occc34)cc2)CC1` [Compound I-41, 4-(4-furo[2,3-b]pyridylamino)-N-(4-((4-methyl-1-piperazinyl)methyl)phenyl)-1H-3-pyrazolecarboxamide], the melting point lay within 273 to 276 °C. Also, the inhibition at 1 µM at CDK2/A turned out to be 56.2%. Moreover, the inhibition at 1 µM at Aurora A came to 42.6%.
